Measured values reported in US20160263072A1, “MONOACYLGLYCEROLS AND FAT-SOLUBLE NUTRIENTS FOR USE IN THE TREATMENT OF MALABSORPTION HAVING A NON-MECHANICAL BASIS” (NESTEC S.A., priority 2013, published 2016).

Tests used:
[1] = Lipid maldigestion or malabsorption rat model (XENICAL-induced): EPA level in red blood cell and tissue lipids; format: in vivo; conditions: rats
Method: The concept was tested in a lipid maldigestion or malabsorption rat model. The maldigestion or malabsorption condition was obtained using XENICAL® (ORLISTAT), a pancreatic and gastric lipases inhibitor (tetrahydrolipstatin; see FIG. 7). Rats were fed during 21 days with long-chain polyunsaturated fatty acid (LC-PUFA) supplements containing mainly eicosapentaenoic (EPA) acid. Fish oil was used as a source of triacylglycerols, and different EPA glycerides were evaluated. XENICAL® (ORLISTAT) was given at a level sufficient to decrease lipid absorption by 40%. A group receiving fish oil without XENICAL® (ORLISTAT) was used as a positive control. At different time intervals (D3, D7, […]), the fatty acid profiles of red blood cell and plasma lipids were determined. At the end of the experiment, the fatty acid profiles of different tissues were determined. The main objective was to follow the level of EPA in red blood cell and plasma lipids. The main comparison evaluated was the difference in EPA level between the group receiving EPA-containing sn-1(3) MAG in combination with XENICAL® (ORLISTAT) and the positive control group (fish oil+XENICAL® (ORLISTAT)).

[2] = Clinical study: delivery of EPA by sn-1(3) MAG vs fish oil (TAG) under XENICAL (ORLISTAT)-induced lipid maldigestion; format: in vivo, humans
Method: This clinical study compared the efficacy of sn-1(3) MAG and fish oil (TAG) in delivering EPA in humans under lipid maldigestion conditions induced by XENICAL® (ORLISTAT). The comparison was tested in volunteers having a BMI of 37-40 kg/m^2 and treated with ORLISTAT® to induce lipid maldigestion or not treated with XENICAL® (ORLISTAT). The primary objective was to assess accretion of EPA in erythrocytes over 21 days when consumed as fish oil (TAG) or sn-1(3) MAG. The secondary objectives were to assess accretion of EPA in plasma over 21 days and also to assess the pharmacokinetics of EPA after an acute dose either in the form of sn-1(3) MAG or TAG (AUC in chylomicrons over 10 hours postprandial).

| SMILES | EPA incorporation in red blood cells ([1]; day 7, fish oil + XENICAL vs fish oil without XENICAL) | incorporation of LC-PUFAs in tissue ([1]; conditions of lipid maldigestion or malabsorption) | chronic effect: accretion of EPA in erythrocytes after 21 days ([2]; humans, with XENICAL, vs fish oil and XENICAL, p=0.0001) | chronic effect: accretion of EPA in plasma after 21 days ([2]; humans, with XENICAL, vs fish oil and XENICAL, p=0.0003) | carrier for EPA compared with fish oil (TAG) ([2]; obese subjects treated with XENICAL) |
| --- | --- | --- | --- | --- | --- |
| CCCCCCCCCCC[C@@H](C[C@@H]1OC(=O)[C@H]1CCCCCC)OC(=O)[C@H](CC(C)C)NC=O [XENICAL® (ORLISTAT), tetrahydrolipstatin, reference compound] | decreases EPA incorporation in red blood cells | – | – | – | – |
| CC/C=C\C/C=C\C/C=C\C/C=C\C/C=C\CCCC(=O)OC[C@@H](O)CO [sn-1(3) MAG, 1,3 MAG-EPA] | – | improved | statistically significant | statistically significant | better carrier for EPA than fish oil |
